Test [1] deals with AAD1-transformed T0 2095-2 creeping bentgrass events. Put plainly: Quizalofop-p-ethyl postemergence on AAD1 (pDAB5042) creeping bentgrass line 2095-2. Type of test: in vivo, Agrostis stolonifera. On the procedure: (§1) Selected T0 plants were sprayed with quizalofop-p-ethyl (Assure II®, DUPONT, Wilmington, Del.) at rates ranging from 60 to 2,240 g ae/ha. […] This rate also controls susceptible monocot weed species. Measured amounts were placed individually in 25 mL glass vials and dissolved in a 4 mL volume of 1.0% (v/v) Agri-Dex® Crop Oil Concentrate (COC) from HELENA CHEMICAL (Collierville, Tenn.). Application solutions were prepared by serial dilution of the highest rate applied. One-half the volume of the highest rate stock solution (2 mL) was transferred to a clean 25 mL vial containing an equal volume of 1% COC and the diluted solution was mixed. Additional dilutions were prepared similarly by removing one-half the volume of the previous concentration (2 mL), and adding to an equal volume of 1% COC and mixing. When preparing the lowest concentration, the remaining one-half volume was discarded. All 2 mL stock solutions were further diluted by adding 10 mL aqueous mixture of 1.0% (v/v) COC, so that the final spray solutions were 12 mL in volume and contained 1.0% (v/v) COC.
(§2) Spray solutions were applied to the plant material with an overhead Mandel™ track sprayer equipped with a 8002E nozzles calibrated to deliver 187 L/ha over an application area of 0.503 square meters (m^2) at a spray height of 18 inches (46 cm) above average plant canopy height. Control plants were sprayed in the same manner with the COC blank.
The treated plants and control plants were placed in a greenhouse, and watered by sub-irrigation to prevent wash-off of the test compounds. At various times after application, the condition of the test plants as compared with that of the untreated plants was determined visually and scored on a scale of 0 to 100 percent (where 0 corresponds to no injury or growth inhibition and 100 corresponds to complete kill). Regenerated, non-transformed (NT) ‘Crenshaw’ or elite line 2905-2 creeping bentgrass plants and/or seed-derived clonally propagated plants served as quizalofop sensitive controls. […]

Test [2] relates to AAD1-transformed T0 ‘Crenshaw’ creeping bentgrass events (pDAB3878, pDAB5042). The test is described as follows: Quizalofop-p-ethyl postemergence on AAD1-transformed T0 Crenshaw creeping bentgrass, visual % injury. It counts as in vivo, Agrostis stolonifera L. var. palustris. On the procedure: After molecular confirmation was utilized to identify transgenic events, a number of transgenic events were tested for herbicide tolerance. Specific isolated transgenic events were selected and maintained vegetatively through division of the crowns and replanting the clonal pieces into fresh growth medium. Clonally propagated plants were maintained by periodic “mowing” of vegetative tissues.
Growth medium was prepared by mixing Promix® and sand in a 2 to 1 ratio. The medium was contained in plastic pots with a surface area of 84.6 square centimeters (cm^2). When required to maintain plant health, a fungicide, insecticide, and/or other chemical or physical treatment was applied to stock plants. The plants were maintained in a greenhouse with an approximate 14 hour photoperiod which was maintained at 24-27° C. during the day and 22-25° C. during the night. Nutrients (Peters Excel® 15-5-15 5-Ca 2-Mg and iron chelate) were applied in the irrigation solution as needed, and water was added on a regular basis. Supplemental lighting was provided with overhead metal halide 1000-Watt lamps when photosynthetically active radiation (PAR) dropped below 500.
as §1, §2
The treated plants and control plants were placed in a greenhouse, and watered by sub-irrigation to prevent wash-off of the test compounds. At various times after application, the condition of the test plants as compared with that of the untreated plants was determined visually and scored on a scale of 0 to 100 percent (where 0 corresponds to no injury or growth inhibition and 100 corresponds to complete kill). Regenerated, non-transformed (NT) ‘Crenshaw’ or elite line 2905-2 creeping bentgrass plants and/or seed-derived clonally propagated plants served as quizalofop sensitive controls.

Test [3] concerns T2 lineages from 3404 transformations. The test is described as follows: Quizalofop tolerance with respect to AAD1 (v3) expression in T2 3404 lineages. It counts as in vivo, corn.
The test system of the next test is Non-transformed hybrids. The test is described as follows: Field tolerance to quizalofop and 2,4-D: non-transformed hybrids. It counts as in vivo, corn. Conditions: for % Injury 3 WAA (0-100 scale): 140 g ae/ha. The text has this: Two field trials were established at field stations in Hawaii and Indiana. […] The hybrid Hi-II×5XH571 is of the same parentage as the AAD1 (v3) event lines. The hybrid Croplan 585SR is a sethoxydim resistant line.
The experimental design was a split-plot with four replications. The main plot was herbicide treatment and the sub-plot was AAD1 (v3) event or comparison hybrid. Plots were one row by 3.7 meters with approximately twenty-five seeds planted in each row. For AAD1 events, seeds from a different lineage within the event were planted in each replicate.
Glufosinate at 560 g ai/ha was applied to AAD1 (v3) plots at the V2 stage to eliminate non-transformed plants. […] Treatments were applied using backpack broadcast boom equipment delivering 187 L/ha carrier volume at 130-200 kpa pressure.
Quizalofop treated plots were visually assessed for crop injury at one and three weeks after application (WAA) using a 0-100% scale, where 0 equals no injury and 100 equals complete death.

A value given as a limit tells only on which side of the number the result lay.

As to `C[C@@H](Oc1ccc(Oc2cnc3cc(Cl)ccc3n2)cc1)C(=O)O` [quizalofop], the “mean injury, pDAB5042 2095-2 events” value in test [1] (120, 480 and 960 g ae/ha, 22 to 50 DAA) was “less than 25%”. For the same compound, the “injury of 48 of the 53 individual 2095-2 events” value in test [1] (120 g ae/ha) is at most 20%. Further, the “injury of four 2095-2 events” value in test [1] (120 g ae/ha) is “between about 25% and 35% injury”. For the same compound, the “mean injury, pDAB5042 Crenshaw events” value in test [2] (60, 120, 240 and 480 g ae/ha, 21 to 24 DAA) is given as “less than 10%”. For the same compound, the “mean injury, pDAB3878 Crenshaw events” value in test [2] (120 g ae/ha, 11 DAA) is recorded as “about 20%”; in test [2] (120 g ae/ha, 14 DAA) it was “about 25%”; in test [2] (120 g ae/ha, 20 DAA) it was “about 20%”; in test [2] (480 g ae/ha, 11 DAA), around 30%; in test [2] (480 g ae/ha, 14 DAA), around 30%; in test [2] (480 g ae/ha, 20 DAA), “about 20%”. Also, in test [2] (480 g ae/ha, 21-24 DAA, all events except 204 and 227), the “injury of individual pDAB5042 Crenshaw events” value is at most 20%. In addition, the “highest level tested at which corn expressing AAD1 (v3) is protected from injury” value in test [3] is recorded as 2,240 g/ha. The “injury of non-transformed hybrids” value in the test with Non-transformed hybrids (70 g ae/ha, field) is reported as 80-100%. The “% Injury 3 WAA (0-100 scale)” value in the test on Non-transformed hybrids (HI, CROPLAN 585SR) is 96%; in the test with Non-transformed hybrids (HI, DK493) it was 100%; in the test with Non-transformed hybrids (HI, HI-II X 5XH571), 100%; with Non-transformed hybrids (IN, CROPLAN 585SR), 80%; in the test with Non-transformed hybrids (IN, DK493), 100%; in the test with Non-transformed hybrids (IN, HI-II X 5XH571), 100%.

The values above are taken from patent publication US10450549B2, “Aryloxyphenoxypropionate tolerance in turfrgass species and use of AAD1 as a selectable marker” (Dow AgroSciences, LLC, priority 2004, dated 2019).
